Laboratory results as given in patent US11584712B2, “Alkylamine-substituted perthiocarbamates as dual precursors to hydropersulfide and carbonyl sulfide” (The Johns Hopkins University, priority 2020, dated 2023).
“And” between values parts separate entries of the source, which are not always exact repeats. Equal values may be shown once. “Also recorded” adds a separate entry of the source.

How the values were obtained:
Assay type in all cases: physicochemical
[1] = Kinetics of RSSH release from precursors monitored by HPLC (HPE-IAM trapping); conditions: for Hydropersulfide Yield (%): precursor 100 μM, HPE-IAM 5 mM, pH 7.4 phosphate buffer with DTPA
Description: (§1) Precursors 7a-d were dissolved in DMSO to afford 10 mM stock solutions. HPE-IAM was dissolved in DMSO to obtain a 100 mM stock solution. […] This solution was pre-incubated for 10 min at 37° C. and then precursor 7a-d (30 μL, 10 mM) were independently added into the mixture. The resulting solution was incubated at 37° C. At different time points, an aliquot of 200 μL was taken and quenched with 200 μL […] solution. These samples were stored at 0° C. until HPLC analysis was performed. The sample (20 μL) was injected into a high-performance liquid chromatography (HPLC) equipped with Phenomenex C-18 reverse phase column (250 mm×4.6 mm, 5 μm). HPLC Method: mobile phase A (H2O) and mobile phase B (ACN), flow rate: 1 mL/min, run time: 20 min, the gradient elution method: 10% to 40% B from 0 to 12 min, 40% to 80% B from 12 to 20 min. The elution was monitored by a UV detector at 275 nm. A calibration curve was generated using RSS-HPE-AM 9 to quantify RSSH generation from 7a-d.
as §1, with “by a variable UV detector” for “by a UV detector”

[2] = COS release using membrane inlet mass spectrometry (MIMS); conditions: for COS release (m/z=60 signal): precursor 50 μM, pH 7.4 phosphate buffer saline with DTPA, 37° C.
Description: (§2) COS was analyzed using a Hiden HPR-40 MIMS system with a sample cell and membrane probe that have been optimized to detect gases dissolved in aqueous solution as described previously. Cline et al., 2011. A stock solution of N-acetyl-cysteine (25 mM) was prepared in DI water. RSSH precursor stock solutions (5 mM) were prepared in DMSO. These solutions were degassed by purging with nitrogen for 10 min before COS release analysis. Typically, 20 mL phosphate buffer solution (10 mM) was added to the sample cell, degassed and purged with a continuous flow of argon for 15 min. N-acetyl cysteine (200 μL, 25 mM) and RSSH precursor (200 μL, 5 mM) were then injected using a gas tight syringe and ion current at m/z 60 (COS^+) were collected for 2 h (source pressure was approximately 1×10^−7 to 5×10^−7 Torr).
as §2, with “(COS*)” for “(COS^+)”

[3] = RSSH generation in the presence of N-acetyl cysteine by UPLC-MS; conditions: NAC 500 μM, 37° C.; for Byproduct % (yield of cyclic urea 2a-d): precursor 100 μM, pH 7.4 ammonium bicarbonate buffer with DTPA
Description: […] The resulting mixture was incubated at 37° C. An aliquot (200 μL) of reaction mixture was withdrawn at specified time points and quenched with 1% formic acid (200 μL). 3-Amino-benzoic acid (50 μM) was added to each sample as internal standard prior to UPLC-MS analysis. To quantify 2a-d generated from these precursors, a calibration curve for each individual cyclic urea with known concentrations was independently generated.
[…] The resulting mixture was incubated at 37° C. An aliquot ([…]) of reaction mixture was withdrawn at specified time points and quenched with 1% formic acid (200 μL). 3-amino-benzoic acid (50 μM) was added to each sample as internal standard prior to UPLC-MS analysis. To quantify 2a-d generated from these precursors, the calibration curve of each individual cyclic urea with known concentrations was independently generated.

In the case of `CNCCN(C)C(=O)SSC(C)(C)C(NC(C)=O)C(=O)OC` (stereo not drawn) [Precursor 7a, 2-(((3-acetamido-4-methoxy-2-methyl-4-oxobutan-2-yl)disulfannecarbonyl)(methyl)amino)-N-methylethan-1-aminium], the “rate constant k of RSSH release” value ([1]; pH 6.0) is reported as 0.031 min⁻¹, the “first-order rate constant k of RSSH release (RSS-HPE-AM 9 generation)” value ([1]; pH 7.4 phosphate buffer, HPE-IAM, 37° C., HPLC) is reported as 0.505 min⁻¹ and 0.505 ± 0.019 min⁻¹ and the “rate constant k of RSSH release” value ([1]; pH 8.0) is reported as 2.58 min⁻¹. For the same compound, the “Hydropersulfide Yield (%)” value ([1]; 37° C.) was 89% and 89 ± 3%, the “COS release (m/z=60 signal)” value ([2]; NAC 0.25 mM (5 equiv.)) was “small additional increase” and the “COS release (m/z=60 signal)” value ([2]; without NAC) was “very small increase”. For the same compound, the “Byproduct % (yield of cyclic urea 2a-d)” value [3] was 87% and 87 ± 1%.

With `COC(=O)C(NC(C)=O)C(C)(C)SSC(=O)N(C)CCN` (stereo not drawn) [Precursor 7b, 2-(((3-acetamido-4-methoxy-2-methyl-4-oxobutan-2-yl)disulfannecarbonyl)(methyl)amino)ethan-1-aminium] the “Hydropersulfide Yield (%)” value ([1]; 37° C.) was 94 ± 1%, the “COS release in the presence of GSH compared with NAC” value ([2]; pH 7.4, GSH) was “slightly higher/faster COS release” and the “COS release (m/z=60 signal)” value ([2]; NAC 0.25 mM (5 equiv.)) was “increased production of COS”. For the same compound, the “RSSH release under acidic conditions” value ([3]; 7b 100 μM, pH 6.0 ammonium acetate buffer 50 mM, 12 h) was “still observed, albeit at a slower rate; also recorded: slow RSSH release under acidic conditions” and the “Byproduct % (yield of cyclic urea 2a-d)” value [3] was 58% and 58 ± 0.7%.

For “3-(((3-acetamido-4-methoxy-2-methyl-4-oxobutan-2-yl)disulfannecarbonyl)(methyl)amino)-N-methylpropan-1-aminium [Precursor 7c]”, the “Hydropersulfide Yield (%)” value ([1]; 37° C.) was 90% and 90 ± 1%, the “COS release (m/z=60 signal)” value ([2]; NAC 0.25 mM (5 equiv.)) was “produce mainly COS” and the “Byproduct % (yield of cyclic urea 2a-d)” value [3] was 19.2 ± 0.5%.
